Measured values taken from the supplement of paper PMC10307832.

Legend:
Test in all cases: relative viability (nuclei count vs DMSO), 5 days (fraction); higher = more cells survive
[1] = compound: CC1=NN=C(O1)C2=NN=C(C=C2)N3CCC(CC3)OC4=C(C=CC(=C4)F)Cl
How it was run: (§1)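 Viability is treated-well nuclei as a fraction of vehicle-well nuclei, reported as the median across plates. Before counting, lung cancer cell lines were kept overnight at 37 °C in 1536-well plates, pinned with five √10-spaced library-drug doses on vehicle-anchored plates, and left 5 days without medium change, then fixed, permeabilised and Hoechst-stained in one step, imaged at 4× and counted by MetaXpress. A plate passed only if control CV was below 25% and at least one doubling occurred.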

Tosedostat = compound: CC(C)C[C@@H](C(=O)N[C@H](C(=O)OC1CCCC1)c1ccccc1)[C@H](O)C(=O)NO [Tosedostat]
How it was run: as §1

Tosedostat + Decitabine = compound: CC(C)C[C@@H](C(=O)N[C@H](C(=O)OC1CCCC1)c1ccccc1)[C@H](O)C(=O)NO [Tosedostat] + Nc1ncn([C@H]2C[C@H](O)[C@@H](CO)O2)c(=O)n1 [Decitabine] (partner 2 µM)
How it was run: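 After 5 days of treatment, lung cancer cells in 1536-well plates were fixed and stained in a single step (final 0.05% Triton X-100, 1% formaldehyde, 1 ug/ml Hoechst) and their nuclei counted on 4× images. Treatment had been applied by pin tool the day after seeding as one drug alone or as a fixed anchor-drug dose with five library-drug doses (not always all listed) in √10 steps. Relative viability is the nuclei count of treated wells divided by that of vehicle wells, and values are medians of duplicate plates.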

Work on UMC-11 yielded a relative viability ([1]; 0.253 µM) of 0.634, a relative viability ([1]; 0.8 µM) of 0.641 and a relative viability ([1]; 2.53 µM) of 0.76. It also gave a relative viability ([1]; 8 µM) of 0.594, a relative viability (Tosedostat; 0.02 µM) of 1.1 and a relative viability (Tosedostat; 0.06325 µM) of 0.994. For the same cell line, the relative viability (Tosedostat; 0.2 µM) was 1.03, the relative viability (Tosedostat; 0.6325 µM) was 1.04 and the relative viability (Tosedostat; 2 µM) was 1.05. It also gave a relative viability (Tosedostat + Decitabine; first compound 0.02 µM) of 0.687, a relative viability (Tosedostat + Decitabine; first compound 0.06325 µM) of 0.575 and a relative viability (Tosedostat + Decitabine; first compound 0.2 µM) of 0.801. For the same cell line, the relative viability (Tosedostat + Decitabine; first compound 0.6325 µM) was 0.568 and the relative viability (Tosedostat + Decitabine; first compound 2 µM) was 0.587.
